# Measured values from patent publication US20070287676A1, “Diagnosis and treatment of endometriosis” (priority 2006, published 2007).
# Entries after “also recorded” stand apart in the source; their conditions may differ.
# What was measured:
# [1] = test system: Fas; test: Fas mRNA expression by RT-PCR in treated YHES cells; assay type: cell-based, human; conditions: TSA 10 μM, time not stated
# Experimental: (§1) The YHES cells were harvested by trypsinization and seeded in 12-well at 5×10^4 cells/well plates and were pretreated with E2 and P as described above. […] Total RNA was isolated from treated cells using TRIzol reagent (Invitrogen, Carlsbad, Calif.) according to the manufacturer's instructions. The integrity of total RNA was inspected on an agarose gel. One microgram of total RNA from each sample was treated with DNase I to remove potential DNA contamination and then reverse-transcribed using Superscript II Reverse Transcriptase (Invitrogen). First-strand cDNA obtained from RNA samples was stored at −80° C. until use. To measure the mRNA expression levels of AR, PR-A, PR-B, Fas and FasL in each cell culture, semi-quantitative PCR analysis was performed.
# (§2) Quantitative real-time RT-PCR was carried out on an ABI 7900 DNA sequencer (Applied Biosystems), and monitored by SYBR Green I (Qiagen, Valencia, Calif.). The PCR products of the expected size were visualized on a 0.8% agarose gel. The relative mRNA level of each gene was calculated using relative quantitation of gene expression (Applied Biosystems, Foster City, Calif.) with 18s as an endogenous control. The reproducibility of the quantitative measurements was evaluated by two independent cDNA syntheses. The means and standard deviations of the replicated measurements were calculated and presented as mean ±s.d.
# [2] = test system: YHES cells (immortalized human endometrial stromal cell line); test: MTT cell proliferation assay in YHES cells; assay type: cell-based; conditions: 48 hr
# Experimental: An immortalized human endometrial stromal cell line was maintained following Krikun et al. (Krikun et al. 2004 Endocrinology 145:2291-6). Cells were maintained in phenol red-free DMEM/F12 (Gibco, CA) medium supplemented with 10% charcoal-dextran stripped FBS (Biomeda, CA), 1 μl/ml sodium pyruvate (Gibco, CA) and 1× Pen/Strep/Fungizone (Gibco, CA), at 37° C. with 5% C02 in a humidified incubator.
# (§3) The YHES cells were harvested by trypsinization and seeded in 96-well plate at ˜1×10^4 cells/well. The cells were allowed to attach to the plate for overnight at 37° C. with 5% C02 in a humidified incubator. Then they were pretreated with physiological concentration of E2 (10^-9M) and P (10^-7M) for 24 hr to maintain hormonal responsiveness. […] Cell growth was valuated by the MTT assay (ATCC, Manassas, Va.). MTT assay was performing according to the manufacturer's instructions, and in triplicate to generate mean values. Cell numbers in the untreated control were arbitrarily assigned as 1. The relative cell growth was expressed as fold increase/decrease relative to the control. Data were presented as mean values from three independently repeated experiments.
# [3] = test system: PR-B; test: PR-B mRNA expression by RT-PCR in treated YHES cells; assay type: cell-based, human
# Experimental: as §1, §2
# [4] = test system: AR; test: AR mRNA expression by RT-PCR in treated YHES cells; assay type: cell-based, human
# Experimental: as §1, §2
# [5] = test system: endometrial cells; conditions: immortalized human endometrial stromal cells; cited from earlier work
# [6] = test system: FasL; test: FasL mRNA expression by RT-PCR in treated YHES cells; assay type: cell-based, human
# Experimental: as §1, §2
# [7] = test system: endometrial stromal cells; conditions: in vitro; cited from earlier work
# [8] = test system: AR; test: Western blot of AR protein in treated YHES cells; assay type: cell-based, human; conditions: 16 hrs; TSA 10 μM, CDB 100 μM, NAC 10 mM
# Experimental: Western blot analysis was performed to measure protein expression of β-actin, ERα, ERβ, and AR. […] Whole cell lysate was prepared as previously described (44) by using RIPA lysis buffer containing 50 mM Tris, pH 7.4, 150 mM NaCl, 12 mM EDTA, 1% Triton X-100, 0.5% sodium deoxycholate, and 0.1% SDS. To avoid degradation, a protease inhibitor cocktail III (Sigma) was added at 2%. Total protein was quantified using a BCA protein assay kit (Pierce, Rockford, Ill.). Ten microgram of total protein was separated by electrophoresis on 10% SDS-polyacrylamide gels. The protein was then transferred onto PVDF membranes (Milipore, Bedford, Mass.). […] The blot was then subsequently incubated with primary antibody rabbit anti-human ERα (Santa Cruz Biotechnology, CA), rabbit anti-human ERβ (Zymed Laboratories, South San Francisco, Calif.), rabbit anti-β-actin (Cell Signaling Technology, Beverly, Mass.), or rabbit ant-human AR (Santa Cruz Biotechnology, CA), respectively, in blocking solution (5% nonfat dry milk plus PBS) for 2 hr at room temperature. After washing with PBS plus 0.5% Tween-20, the membranes were then incubated with the secondary antibody goat anti-rabbit IgG (H+L)-HRP (Santa Cruz Biotechnology, CA) at 1:8000 dilution in blocking solution for 2 h at room temperature. […]
# [9] = test system: YHES cells; test: Long-term culture and morphology after treatment; assay type: cell-based, human
# Excerpt: The micrographs of the first two rows were taken using 20× magnification, and those of the third row were taken using 10× magnification. The micrographs of the first row and the first two micrographs of second row were obtained using differential inference contrast (DIC) optic; the others were obtained without the DIC optic. […]
# [10] = test system: endometriotic cells; test: Sensitivity of endometriotic versus endometrial cells to TSA (unpublished observation); assay type: cell-based; conditions: Wu and Guo
# [11] = test system: COX-2; conditions: cited from earlier work
# [12] = test system: PR-A; test: PR-A mRNA expression by RT-PCR in treated YHES cells; assay type: cell-based, human
# Experimental: as §1, §2
# [13] = test system: YHES cells pretreated with H2O2; test: H2O2-induced cell proliferation, MTT assay; assay type: cell-based, human; conditions: 100 μM, H2O2 1 μM, 48 hours, vs H2O2 only
# Experimental: MTT assay was performed after 48 hours of treatment.
# as §3
# The addition of H202 was meant to mimic the oxidative stress as reported in endometriosis. […] RU486 suppressed cell proliferation by 75% at the concentration of 100 μM.
# [14] = 8 h, 18 h and 36 h, TSA 10 μM, CDB 100 μM, NAC 10 mM, semi-quantitative RT-PCR
structure (smiles),measurement,setting,value
"CC(/C=C/C(=O)NO)=C\[C@@H](C)C(=O)c1ccc(N(C)C)cc1 [TSA, trichostatin A]",Fas expression vs control group,[1],lower than the control group
same,reduction of cell proliferation as compared with controls,[2]; 100 μM,~90%
same,effect on cell proliferation,"[2]; across 100, 10, 1, 0.1 μM",strong concentration-dependent antiproliferative effect
same,PR-B mRNA expression level vs untreated control,[3]; [14],increased
same,"PR-B expression, comparison among treatment groups","[3]; overall, real-time RT-PCR",greatest increase
same,AR mRNA expression level vs untreated control,[4]; [14],increased
same,decrease of AR expression as compared with the control group,"[4]; 36 h of treatment, real-time RT-PCR",about 50%
same,effect on cell cycle,[5],induce cell cycle arrest
same,increase in FasL expression as compared with the controls,[6]; 18 h after the treatment,~25 fold
same,FasL expression,[6]; especially 18 and 36 h after the treatment,dramatic increase
same,effect on proliferation,[7],suppresses proliferation of endometrial stromal cells; also recorded: suppressing proliferation of endometrial and endometriotic cells in vitro
same,AR protein level vs control group,[8],highest expression
same,cell morphology,[9]; 24 h after the treatment,signs of apparent apoptosis
same,recovery judged by morphology,"[9]; four weeks after the treatment, TSA and RU486 at 100 μM",did not recover
same,sensitivity of endometriotic cells relative to endometrial cells,[10],over 100 fold
same,effect on IL-1β-induced COX-2 expression,[11],suppresses IL-1β-induced COX-2 expression
same,PR-A mRNA expression level vs untreated control,[12]; [14],increased
same,"PR-A expression, comparison among treatment groups","[12]; overall, real-time RT-PCR",greatest increase
same,suppression of H2O2-induced cell proliferation,[13],50%
